Values quoted from earlier work, collected in patent US5424332A, “Pharmaceutical composition and process for the production thereof” (priority 1993, dated 1995).

What was measured:
[1] = high doses; parenteral, dermal and, in particular, peroral administration
Ehrlich ascites tumor = conditions: mice
[2] = tested on: mitomycin C toxic effects

Row | Compound | adverse effects and toxicity [1] | growth of the Ehrlich ascites tumor (Ehrlich ascites tumor) | toxic effects of mitomycin C [2] | anti-psoriatic action (psoriasis)
1 | NC(=O)/C=C/C(N)=O [fumaramide] | unacceptable rate of adverse effects and high toxicity | – | – | –
2 | O=C(O)/C(O)=C(\O)C(=O)O [dihydroxy fumaric acid] | unacceptable rate of adverse effects and high toxicity | – | – | –
3 | N#C/C=C/C#N [fumaronitrile] | unacceptable rate of adverse effects and high toxicity | – | – | –
4 | O=C(O)/C=C/C(=O)O [fumaric acid] | unacceptable rate of adverse effects and high toxicity | impedes the growth | reduces the toxic effects | anti-psoriatic
